SMILES strings stand for the structures.

Here are results for three compounds from patent US6046177A, “Sulfoalkyl ether cyclodextrin based controlled release solid pharmaceutical formulations” (Cydex, Inc., priority 1999, dated 2000).

For data set [1] the following is noted: glibomuride-β-cyclodextrin complex vs. physical mixture; cited from earlier work.
A short description of data set [2]: Release of methylprednisolone from tablets with […] RS/RL coating without pore forming agent (FIG. 15). The settings on record: Eudragit RS:RL 9 to 1, approximately 5 wt.% coating. Format: physicochemical. The text has this:
As previously mentioned, it is not required that a pharmaceutical formulation according to the invention comprise a coated core wherein the coat comprises a film forming agent and a pore forming agent. […] In this formulation, the coat comprises a combination of Eudragit™ RS and Eudragit™ RL in a 9 to 1 weight ratio and the coating on the core of the tablet comprises approximately 5 wt.% of the total weight of the tablet. Accordingly, the present invention also provides controlled release pharmaceutical formulations consisting essentially of a core surrounded by a coat which comprises a film forming agent wherein the coat controls the rate of delivery of the drug even absent a pore forming agent in the coating.
The above formulation was prepared by first reducing the particle size of the SBE7 -βCD with a wedgewood mortar and pestle and then passing the powder through a 100 mesh screen. The sodium stearyl fumarate was also sieved through a 100 mesh screen prior to use. The SBE7 -βCD and MP were blended together geometrically in a glass mortar. The CEOLUS™, SUPERTAB™, PRUV™ components were then added in order in sequential steps while mixing. Tablets weighing approximately 250 mg each were compressed by hand on a Stokes B2 tablet press using 7 mm standard cup concave toolings. The tablets were compressed to a hardness of approximately 14 kp. […]

Data set [3] in a line: In vitro release of methylprednisolone and SBE7 β-CD from tablets (USP apparatus II). Format: physicochemical.
Method: The MP and SBE7 β-CD (present in a 1:7 molar ratio) along with a pharmaceutical carrier were compressed into a solid core which was spray coated with a mixture of ethylcellulose, PEG3350, PEG400 and ethanol to form a 140 μm thick film coating around the solid core. The dissolution profile was determined using USP dissolution apparatus II (100 rpm, 37° C.) and an HPLC assay for methylprednisolone (MP). […] The first formulation, indicated in FIG. 1 by the hollow circles, contains the separately preformed MP-SBE7 β CD freeze-dried complex. The second formulation, indicated by the filled in circles, contains a major portion of uncomplexed MP as a physical mixture with SBE7 β-CD. The third formulation, indicate by the squares, contains a physical mixture of lactose, fructose and MP.
The tablet core was prepared with a 1/7 molar ratio of methylprednisolone/(SBE)7 -β-CD. This ratio was calculated using the previously determined binding constant in order to have sufficient (SBE)7 -β-CD in the tablet core to solubilize all the methylprednisolone present. […] The tablet core consisted of either the methylprednisolone-(SBE)7-β-CD complex or the physical mixture of the two compounds. The complex was prepared by freeze drying a methylprednisolone-(SBE)7 -β-CD solution (5-15% in (SBE)7-β-CD). Non (SBE)7 -β-CD containing tablets were also prepared. They consisted of a 1/7 ratio of methylprednisolone to a 50:50 (w/w) mixture of fructose and lactose (Fischer Scientific, N.J.). The mixtures were ground in a mortar and sieved through a 200 mesh (75 μm) screen under low humidity conditions. The mixtures were stored in a dessicator when not used. Tablets of around 150 mg were compressed into the dissolution die using a Carver Laboratory Press (Fred S. Carver Inc., N.J.) at 1 ton during 1 min.
The coating formulation was prepared by mixing 4.5% of ethylcellulose (Ethocel Standard 10 Premium, Dow Chemicals, Mich.) with an equivalent amount of poly(ethylene glycol) 3350 (PEG 3350, Sigma, MO). 0.9% of PEG 400 (Sigma, MO) and 90.1% of absolute ethanol were added to the mixture. The dispersion was shaken and sonicated until complete dissolution of the solid components. The coating solution was air sprayed (Airbrush, Paasche) on a Teflon surface under constant air flow (40° C.). At the end of the spraying, the membranes were dried under the 40° C. air flow for 5 min. They were then left at room temperature during 24 hours. The membranes were peeled off the Teflon surface, checked for cracks and flaws under a light microscope (X70) and their thickness was measured using a micrometer (Ames, Mass.). The membranes were then secured on the dissolution die containing the tablet, with the face which was sprayed on the Teflon in contact with the tablet surface.
The release studies were realized by placing the dissolution die in a USP dissolution apparatus II (Vanderkamp 600, VanKel Industries Inc.) containing 350 ml of water at 37° C., 100 rpm. Samples were collected at various time points. The 100% release was determined by removing the membrane from the die and allowing the drug dissolution to be complete.
A short description of data set [4]: Release of testosterone from osmotic pumps. The format is physicochemical. To be noted: osmotic pump with (SBE)7m -β-CD vs. sugar mixture or HP-β-CD; FIG. 25.
Method: For the preparation of cores, physical mixtures of TS with (SBE)7m -β-CD, HP-β-CD or sugar (physical mixture of lactose and fructose, 1/1) each containing 10 mg TS were compressed at 1 ton/cm^2 for 60 sec using a Carver™ Laboratory Press with a 6.35 mm flat faced punch. The molar ratios of TS to (SBE)7m -β-CD in the physical mixtures ranged from 1:1 to 1:1.43 and that in the physical mixture with HP-β-CD ranged from 1:1 to 1:1.79. The physical mixtures of TS with the β-CD derivatives or sugar were prepared using a mortar and a pestle. The compressed tablet core was placed in a tablet die as described above. […]
The dissolution and release rates of TS from core tablets (no membrane covering) or the osmotic pump devices (core tablets covered by a semipermeable membrane) were measured using a USP apparatus utilizing the paddle method. […] The amount of each osmotic pump agent, (SBE)7m -β-CD, HP-β-CD and sugar, released from the OPT was calculated by difference from the weight of the total ingredients released and the weight of the remaining released components at each sampling time in the study. […] The weight of the released osmotic agent was measured as a residual weight after evaporating and vacuum drying a 200 ml solution sample for 12 hr at 60° C. […]
A short description of data set [5]: In vitro release of testosterone from tablets (USP apparatus II). The settings on record: 1:1 molar TST:SBE7 β-CD; sorbitol/PEG 400/cellulose acetate film; FIG. 8. Format: physicochemical.
Method: (FIG. 8) The solid core of the tablet comprised a 1:1 molar ratio of TST and SBE7 β-CD. The film coating of this tablet comprised sorbitol, PEG 400 and cellulose acetate. The release profiles of the physical mixture and complex formulation were compared to that of a baseline TST/fructose-lactose formulation.
The tablet core was prepared with a 1/1 molar ratio of testosterone/(SBE)7 -β-CD. The tablet core consisted of either the testosterone-(SBE)7 -β-CD complex or the physical mixture of the two compounds. The complex was prepared by freeze-drying a testosterone-(SBE)7 -β-CD solution (5-15% in (SBE)7m -β-CD). Non (SBE)7 -β-CD containing tablets were also prepared. […]
Semi-permeable Membrane Preparation The coating formulation was prepared by dissolving 1.0% of sorbitol (Sigma, MO) in 3.7% of double distilled water and 0.4% of PEG 400 (Sigma, MO). […] The membranes were peeled off the surface, checked for cracks and flaws under a light microscope (X70) and their thickness was measured using a Micrometer (Ames, Mass.). […]
The release studies were realized by placing the dissolution die in a USP dissolution apparatus II (Vanderkamp 600, VanKel Industries Inc.) containing 900 ml of water at 37° C., 100 rpm. […] The 100% release was determined by removing the membrane from the die and allowing the drug dissolution to be complete. The samples were analyzed by HPLC for testosterone concentration.

On to `Cc1ccc(S(=O)(=O)NC(=O)NC2C3CCC(C)(C2O)C3(C)C)cc1` (stereo not shown) [glibomuride], for which the “bioavailability of complex vs. physical mixture” value in data set [1] is listed as “two to three fold better”.

Consider `C[C@H]1C[C@@H]2[C@H]([C@@H](O)C[C@@]3(C)[C@H]2CC[C@]3(O)C(=O)CO)[C@@]2(C)C=CC(=O)C=C12` [methylprednisolone], for which the “release of MP, coat without pore forming agent” value in data set [2] is “MP is released from a tablet formulation”. Also, in data set [3] (140 μm film, FIG. 2a, 2b), the “release profile, MP vs. SBE7 β-CD” value was “substantially the same release profiles”. Further, the “release profile, physical mixture vs. freeze dried complex” value in data set [3] (200 μm film, FIG. 3a, 3b) is reported as “a slight difference was noted in the release profiles of the physical mixture versus the freeze dried complex”. Besides, the “release profile, physical mixture vs. preformed complex” value in data set [3] (MP:SBE7 β-CD 1:7 molar, 140 μm ethylcellulose/PEG film, FIG. 1, 2) is on record as “release profile similar to or substantially similar to the former”. In addition, the “effect of MP/SBE7 β-CD ratio on release” value in data set [3] (film coated tablets, ratios 1/10, 1/7, 1/3, FIG. 7a-7d) is “decreasing the relative amount of SBE7 β-CD decreases the observed release profile for MP”. Further, in data set [3] (no film, FIG. 6), the “release profile, physical mixture vs. complex, uncoated core” value is reported as “The physical mixture exhibits substantially the same release profiles as the complex”. Further, the “release characteristics, physical mixture vs. freeze dried complex” value in data set [3] (ratios 1/10, 1/7, 1/3, FIG. 7a-7d) was “substantially the same release characteristics”.

For the compound `C[C@]12CC[C@H]3[C@@H](CCC4=CC(=O)CC[C@@]43C)[C@@H]1CC[C@@H]2O` [testosterone], the “release from osmotic pumps” value in data set [4] was “released a greater amount of TS and at a more acceptable rate than the osmotic pumps containing the sugar mixture or HP-β-CD”. In data set [5], the “release profile, physical mixture vs. freeze dried complex” value is “exhibited the same release profile as the respective freeze dried mixture”.
